Our source for the MIC and Activity values is ChEMBL document CHEMBL5385959, “Trifluoroacetic acid-mediated synthesis of xanthene constructs and their extensive anti-tuberculosis evaluation” (RSC Med Chem, 2024).

Converted amounts (≈) assume the structure as drawn. The source made the active and inactive calls. No cut-off for these calls is given here. Where only a bound is given, the exact number is not on record here.

Experiment [1] has as its system Pseudomonas aeruginosa. Description: Antibacterial activity against Pseudomonas aeruginosa assessed as reduction in bacterial growth incubated for 24 hrs by broth dilution method. Format: functional. (In broth dilution the organism is exposed to a series of concentrations in liquid medium.)
Experiment [2] relates to Mycobacterium tuberculosis. The experiment can be described thus: Antibacterial activity against Mycobacterium tuberculosis H37Rv assessed as reduction in bacterial growth incubated for 14 days by CLSI protocol based method. The conditions noted are these: 336 h, time 14 day. The format is functional.
For experiment [3], the system named is Mycobacterium tuberculosis. Description: Antibacterial activity against Mycobacterium tuberculosis H37Ra assessed as reduction in bacterial growth incubated for 14 days by CLSI protocol based method. Format: functional. The conditions noted are these: 336 h, time 14 day.
In experiment [4] the test system is Escherichia coli. The experiment can be described thus: Antibacterial activity against Escherichia coli assessed as reduction in bacterial growth incubated for 24 hrs by broth dilution method. The format is functional.
Experiment [5] relates to Bacillus subtilis. The experiment can be described thus: Antibacterial activity against Bacillus subtilis assessed as reduction in bacterial growth incubated for 24 hrs by broth dilution method. The format is functional.
Experiment [6] deals with Mycobacterium tuberculosis. Description: Antibacterial activity against Mycobacterium tuberculosis H37Rv assessed as reduction in bacterial growth by broth microdilution method. The format is functional.
In experiment [7] the test system is Mycobacterium tuberculosis. Description: Antibacterial activity against GFP-tagged Mycobacterium tuberculosis H37Rv assessed as reduction in GFP expression at half times MIC incubated for 7 days by confocal microscopic analysis. The format is functional, organism-based. The note with it: time 7.0 day.

In the case of `COc1ccc(C2C3=C(CCCC3=O)OC3=C2C(=O)CCC3)cc1`, the MIC (usually the lowest concentration found to suppress growth) in experiment [1] is more than 128 µg/mL; in experiment [2], 16 µg/mL (≈ 49.3 µM); in experiment [3], 16 µg/mL (≈ 49.3 µM); in experiment [4] it was more than 128 µg/mL; in experiment [5] it was more than 128 µg/mL.

For `COc1ccccc1C1C2=C(CCCC2=O)OC2=C1C(=O)CCC2`, the minimum inhibitory concentration (MIC) in experiment [1] was more than 128 µg/mL; in experiment [2], 64 µg/mL (≈ 197 µM); in experiment [3] it was 64 µg/mL (≈ 197 µM); in experiment [4], more than 128 µg/mL; in experiment [5] it was more than 128 µg/mL.

In the case of `CC1(C)CC(=O)C2=C(C1)OC1=C(C(=O)CC(C)(C)C1)C2c1ccc(C#N)cc1`, the MIC was more than 128 µg/mL in experiment [1]; 64 µg/mL (≈ 170 µM) in experiment [2]; 64 µg/mL (≈ 170 µM) in experiment [3]; more than 128 µg/mL in experiment [4]; more than 128 µg/mL in experiment [5].

`CC1(C)CC(=O)C2=C(C1)OC(N)=C(C#N)C2c1cccc(O)c1` (stereo not given): the MIC in experiment [2] is more than 64 µg/mL.

As to `COc1ccc(C2C3=C(CCCC3=O)OC3=C2C(=O)CCC3)cc1O`, the minimal inhibitory concentration (MIC) was more than 128 µg/mL in experiment [1]; 64 µg/mL (≈ 188 µM) in experiment [2]; 64 µg/mL (≈ 188 µM) in experiment [3]; more than 128 µg/mL in experiment [4]; more than 128 µg/mL in experiment [5].

`CC1(C)CC(=O)C2=C(C1)OC1=C(C(=O)CC(C)(C)C1)C2c1cccc(Br)c1`: the minimal inhibitory concentration (MIC) in experiment [1] was more than 128 µg/mL; in experiment [2] it was 64 µg/mL (≈ 149 µM); in experiment [3], 64 µg/mL (≈ 149 µM); in experiment [4], more than 128 µg/mL; in experiment [5], more than 128 µg/mL.

As for `O=C1CCCC2=C1C(c1ccc([N+](=O)[O-])cc1[N+](=O)[O-])C1=C(CCCC1=O)O2`, the minimum inhibitory concentration (MIC) in experiment [1] was more than 128 µg/mL; in experiment [2] it was 64 µg/mL (≈ 167 µM); in experiment [3], 64 µg/mL (≈ 167 µM); in experiment [4], more than 128 µg/mL; in experiment [5], more than 128 µg/mL.

Regarding `Cc1cccc(C2C3=C(CCCC3=O)OC3=C2C(=O)CCC3)c1`, the minimal inhibitory concentration (MIC) is more than 128 µg/mL in experiment [1]; 64 µg/mL (≈ 208 µM) in experiment [2]; 64 µg/mL (≈ 208 µM) in experiment [3]; more than 128 µg/mL in experiment [4]; more than 128 µg/mL in experiment [5].

Turning to `O=C1CCCC2=C1C(c1ccc(Br)cc1)C1=C(CCCC1=O)O2`, the minimum inhibitory concentration (MIC) in experiment [1] was more than 128 µg/mL; in experiment [2], 64 µg/mL (≈ 171 µM); in experiment [3], 64 µg/mL (≈ 171 µM); in experiment [4], more than 128 µg/mL; in experiment [5], more than 128 µg/mL.

As for `CC1(C)CC(=O)C2=C(C1)OC1=C(C(=O)CC(C)(C)C1)C2c1cccc(O)c1`, the MIC was more than 128 µg/mL in experiment [1]; 64 µg/mL (≈ 175 µM) in experiment [2]; 64 µg/mL (≈ 175 µM) in experiment [3]; more than 128 µg/mL in experiment [4]; more than 128 µg/mL in experiment [5].

For `O=C1CCCC2=C1C(c1cccc(Br)c1)C1=C(CCCC1=O)O2`, the minimal inhibitory concentration (MIC) was more than 128 µg/mL in experiment [1]; 64 µg/mL (≈ 171 µM) in experiment [2]; 64 µg/mL (≈ 171 µM) in experiment [3]; more than 128 µg/mL in experiment [4]; more than 128 µg/mL in experiment [5].

On to `NNC(=O)c1ccncc1` [ISONIAZID], for which the MIC came out at 0.625 µg/mL (≈ 4.56 µM) in experiment [2], 8 µg/mL (≈ 58.3 µM) in experiment [6] and 0.019 µg/mL (≈ 0.139 µM) in experiment [3]. For the same compound, the result in experiment [7] was Active.

`O=C1CCCC2=C1C(c1cc(O)ccc1O)C1=C(CCCC1=O)O2`: the minimal inhibitory concentration (MIC) in experiment [1] is more than 128 µg/mL; in experiment [2], 64 µg/mL (≈ 196 µM); in experiment [3], 64 µg/mL (≈ 196 µM); in experiment [4] it was more than 128 µg/mL; in experiment [5], more than 128 µg/mL.

As to `CC[C@@H](CO)NCCN[C@@H](CC)CO` [ETHAMBUTOL], the figures for the minimum inhibitory concentration (MIC) in experiment [2], in experiment [6] and in experiment [3] were 1.25 µg/mL (≈ 6.12 µM), 8 µg/mL (≈ 39.2 µM) and 0.019 µg/mL (≈ 0.093 µM), respectively. For the same compound, the outcome in experiment [7] was Active.

With `O=C1CCCC2=C1C(c1cccc(F)c1)C1=C(CCCC1=O)O2`, the minimum inhibitory concentration (MIC) in experiment [1] is more than 128 µg/mL; in experiment [2], 64 µg/mL (≈ 205 µM); in experiment [3], 64 µg/mL (≈ 205 µM); in experiment [4], more than 128 µg/mL; in experiment [5], more than 128 µg/mL.

Take `COc1ccc(OC)c(C2C3=C(CCCC3=O)OC3=C2C(=O)CCC3)c1`: the MIC in experiment [1] is more than 128 µg/mL; in experiment [2] it was 64 µg/mL (≈ 181 µM); in experiment [3], 64 µg/mL (≈ 181 µM); in experiment [4] it was more than 128 µg/mL; in experiment [5], more than 128 µg/mL.

Turning to `N#CC1=C(N)OC2=C(C(=O)CCC2)C1c1ccccc1` (stereo not given), in experiment [2], the minimal inhibitory concentration (MIC) is more than 64 µg/mL.

`COc1cc(C2C3=C(CCCC3=O)OC3=C2C(=O)CCC3)ccc1O`: the MIC in experiment [1] was more than 128 µg/mL; in experiment [2], 64 µg/mL (≈ 188 µM); in experiment [3], 64 µg/mL (≈ 188 µM); in experiment [4], more than 128 µg/mL; in experiment [5] it was more than 128 µg/mL.

With `CC1(C)CC(=O)C2=C(C1)OC1=C(C(=O)CC(C)(C)C1)C2c1cccc(Cl)c1`, the MIC is more than 128 µg/mL in experiment [1]; 64 µg/mL (≈ 166 µM) in experiment [2]; 64 µg/mL (≈ 166 µM) in experiment [3]; more than 128 µg/mL in experiment [4]; more than 128 µg/mL in experiment [5].

Regarding `COc1cccc(C2C3=C(CC(C)(C)CC3=O)OC3=C2C(=O)CC(C)(C)C3)c1`, the minimum inhibitory concentration (MIC) is more than 128 µg/mL in experiment [1]; 64 µg/mL (≈ 168 µM) in experiment [2]; 64 µg/mL (≈ 168 µM) in experiment [3]; more than 128 µg/mL in experiment [4]; more than 128 µg/mL in experiment [5].

Take `C[C@H]1COc2c(N3CCN(C)CC3)c(F)cc3c(=O)c(C(=O)O)cn1c23` [LEVOFLOXACIN ANHYDROUS]: the MIC in experiment [2] stood at 2.5 µg/mL (≈ 6.92 µM); in experiment [3], 0.039 µg/mL (≈ 0.108 µM).

As for `O=C1CCCC2=C1C(c1cccc([N+](=O)[O-])c1)C1=C(CCCC1=O)O2`, the MIC was more than 128 µg/mL in experiment [1]; 64 µg/mL (≈ 189 µM) in experiment [2]; 64 µg/mL (≈ 189 µM) in experiment [3]; more than 128 µg/mL in experiment [4]; more than 128 µg/mL in experiment [5].

In the case of `N#CC1=C(N)Oc2c(c(=O)oc3ccccc23)C1c1ccc(O)cc1` (stereo not given), the minimum inhibitory concentration (MIC) in experiment [2] was more than 64 µg/mL.

`CC1(C)CC(=O)C2=C(C1)OC(N)=C(C#N)C2c1ccc(O)cc1` (stereo not given): the MIC in experiment [2] is more than 64 µg/mL.

As for `CO[C@H]1/C=C/O[C@@]2(C)Oc3c(C)c(O)c4c(O)c(c(/C=N/N5CCN(C)CC5)c(O)c4c3C2=O)NC(=O)/C(C)=C\C=C\[C@H](C)[C@H](O)[C@@H](C)[C@@H](O)[C@@H](C)[C@H](OC(C)=O)[C@@H]1C` [RIFAMPIN], the MIC in experiment [6] was 8 µg/mL (≈ 9.72 µM).

`O=C1CCCC2=C1C(c1ccccc1)C1=C(CCCC1=O)O2`: the minimal inhibitory concentration (MIC) in experiment [1] is more than 128 µg/mL; in experiment [2] it was 64 µg/mL (≈ 217 µM); in experiment [3], 64 µg/mL (≈ 217 µM); in experiment [4] it was more than 128 µg/mL; in experiment [5] it was more than 128 µg/mL.

Regarding `CC1(C)CC(=O)C2=C(C1)OC1=C(C(=O)CC(C)(C)C1)C2c1ccc(O)cc1`, the MIC was more than 128 µg/mL in experiment [1]; 64 µg/mL (≈ 175 µM) in experiment [2]; 64 µg/mL (≈ 175 µM) in experiment [3]; more than 128 µg/mL in experiment [4]; more than 128 µg/mL in experiment [5].

In the case of `O=C1CCCC2=C1C(c1cccc(Cl)c1)C1=C(CCCC1=O)O2`, the MIC is more than 128 µg/mL in experiment [1]; 64 µg/mL (≈ 195 µM) in experiment [2]; 64 µg/mL (≈ 195 µM) in experiment [3]; more than 128 µg/mL in experiment [4]; more than 128 µg/mL in experiment [5].

Regarding `CC1(C)CC(=O)C2=C(C1)OC1=C(C(=O)CC(C)(C)C1)C2c1cccc([N+](=O)[O-])c1`, the MIC in experiment [1] was more than 128 µg/mL; in experiment [2] it was 64 µg/mL (≈ 162 µM); in experiment [3], 64 µg/mL (≈ 162 µM); in experiment [4], more than 128 µg/mL; in experiment [5], more than 128 µg/mL.

`O=C1CCCC2=C1C(c1ccc([N+](=O)[O-])cc1)C1=C(CCCC1=O)O2`: the MIC in experiment [1] was more than 128 µg/mL; in experiment [2] it was 64 µg/mL (≈ 189 µM); in experiment [3] it was 64 µg/mL (≈ 189 µM); in experiment [4], more than 128 µg/mL; in experiment [5], more than 128 µg/mL.

`O=C1CCCC2=C1C(c1cccc(O)c1)C1=C(CCCC1=O)O2`: the minimum inhibitory concentration (MIC) in experiment [1] is more than 128 µg/mL; in experiment [2], 64 µg/mL (≈ 206 µM); in experiment [3], 64 µg/mL (≈ 206 µM); in experiment [4], more than 128 µg/mL; in experiment [5] it was more than 128 µg/mL.
